The record followed here is PubChem BioAssay (NCI).

Test in all cases: growth of human tumour cells (NCI), 48 h
In assay [1] the test system is ACHN renal.
For assay [2], the system named is HOP-62 NSCLC.
Assay [3] relates to NCI-H23 lung.
The test system of assay [4] is OVCAR-3 ovarian.
For assay [5], the system named is OVCAR-4 ovarian.
The subject of assay [6] is RPMI-8226 leukemia.
Assay [7] concerns SK-OV-3 ovarian.
In assay [8] the test system is SW-620 colon.
The subject of assay [9] is UACC-62 melanoma.
In assay [10] the test system is NCI-H522 lung.

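Assay format: 96-well plates, 48-hour exposure. GI50 = concentration required for 50% inhibition of growth. TGI: concentration producing complete growth inhibition.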 Some results are limits rather than exact numbers.

Take `O=C(N/N=C/c1ccc(Br)cc1)N/N=C/c1ccc(Br)cc1`: the TGI was 20.8 µM in assay [1]; 17.5 µM in [2]; above 100 µM in assay [3]; 14.9 µM in [4]; 5.11 µM in [5]; 40.1 µM in [6]. In addition, the TGI was 7.96 µM in [7], 30.7 µM in [8] and 41.2 µM in [9].

Consider `CCOC(=O)C1CCC(=O)N1C(=O)c1ccccc1` (centres undefined), for which the TGI in assay [1], in assay [2], in assay [3], in [10], in assay [4] and in [6] was above 100 µM throughout. Also, the TGI in assay [8] and in assay [9] was above 100 µM in each case.

As for `COC(=O)[C@H](Cc1ccccc1)NC(=O)CCCCCCC(=O)NO`, the TGI is above 100 µM in assay [1]; above 100 µM in assay [3]; 30.6 µM in assay [10]; 34.9 µM in assay [4]; above 100 µM in assay [5]; above 100 µM in [6]. The values for the TGI in [7], in [8] and in [9] were 52.3 µM, above 100 µM and 46.8 µM, respectively.

Consider `COc1ccc(NC(=S)NC(=O)c2ccc3c(c2)Sc2ccccc2O3)c([N+](=O)[O-])c1`, for which the TGI in assay [1] is 64.8 µM; in [2] it was above 100 µM; in assay [3], above 100 µM; in [10], 35.3 µM; in assay [4] it was 58.5 µM; in assay [5] it was 91 µM. The TGI in assay [7] was 98.3 µM; in assay [9], above 100 µM.

For `c1ccc(N2N=C(c3ccco3)CC2c2ccco2)cc1` (centres undefined), the TGI in assay [1], in assay [2], in assay [3], in [10], in assay [4] and in assay [5] was above 100 µM in each case. Besides, the TGI in assay [6], in [8] and in [9] was above 100 µM in each case.

As for `CCOC(=O)C#Cc1ccccc1`, the TGI in [1] was above 100 µM; in assay [2] it was 46.3 µM; in [3], 34.7 µM; in assay [4] it was 45.7 µM; in assay [5], 11.7 µM; in assay [6], 35.2 µM. For the same compound, the TGI was determined as 89.6 µM in assay [7], 31.2 µM in [8] and 32.5 µM in assay [9].

In the case of `CN(C)CCC(=O)/C=C\c1ccccc1`, the TGI in assay [1] is 32.5 µM; in assay [2], above 100 µM; in assay [10] it was 39.3 µM; in assay [4] it was 32.2 µM; in assay [5] it was 33.3 µM; in [6] it was 34.4 µM. The TGI in assay [8] is 35.8 µM; in assay [9], 31.3 µM.

On to `COc1nc(C#CC(C)(C)C)nc(OC)n1`, for which the TGI is above 100 µM in [1]; above 100 µM in [2]; 68.5 µM in assay [3]; 49.3 µM in assay [10]; 77.3 µM in assay [4]; 35.5 µM in assay [5]. In addition, the TGI is above 100 µM in [7], 73.3 µM in assay [8] and 42 µM in assay [9].

Take `C1=C\SS/C=C\SS/1`: the TGI is above 100 µM in assay [1]; above 100 µM in assay [2]; above 100 µM in assay [3]; above 100 µM in assay [5]; 71.8 µM in assay [6]; above 100 µM in assay [7]. In addition, the TGI in [8] and in assay [9] was above 100 µM in each case.

Take `NS(=O)(=O)c1cccc(NC(=S)NC(=O)Nc2ccc(Cl)c(Cl)c2)c1`: the TGI worked out at 48.7 µM in assay [1]; 30.9 µM in [2]; 34 µM in assay [3]; 28.6 µM in [10]; 76.9 µM in assay [5]; 41.7 µM in assay [6]. For the same compound, the values for the TGI in assay [7], in [8] and in assay [9] were 54.1 µM, 37.9 µM and 26 µM, respectively.

`CO[C@@H]1O[C@H](C(=O)c2ccccc2)[C@H]2OC(C)(C)O[C@@H]12`: the TGI in assay [2], in assay [3], in assay [10], in [4], in [5] and in [6] was above 100 µM throughout. The TGI in [7], in [8] and in assay [9] was above 100 µM in each case.

Consider `Cc1ccc(/C=C2\Cc3c(C)cc(C)cc3C2=O)c(C(=O)O)c1`, for which the TGI in assay [1] was above 100 µM; in assay [2] it was above 100 µM; in assay [3], above 100 µM; in assay [10], above 100 µM; in assay [4] it was 94 µM; in [5], above 100 µM. Moreover, the TGI is 53.1 µM in assay [6], above 100 µM in assay [8] and above 100 µM in assay [9].

With `COC(=O)/C(C#N)=C(/NCCN)Nc1ccccc1`, the TGI in [1], in assay [2], in assay [3], in [10], in assay [4] and in assay [5] was above 100 µM in each case. In addition, the TGI in assay [6], in [7] and in assay [8] was above 100 µM in each case.

As for `c1c2c(cc(-n3nnc4c3CCCCCC4)c1-n1nnc3c1CCCCCC3)CCCCCC2`, the TGI in [1] turned out to be 20.9 µM; in [2], 39 µM; in assay [10], 1.85 µM; in assay [4], 64.8 µM; in assay [7], 34.5 µM; in assay [8], 27.4 µM. The compound further showed a TGI in [9] of 26.7 µM.

For the compound `N#Cc1nc(NC(=O)c2ccccc2C(=O)O)c(C#N)[nH]1`, the TGI in assay [1], in assay [2], in [3], in [10], in assay [4] and in [6] was above 100 µM in each case. The TGI in assay [7], in [8] and in assay [9] was above 100 µM each time.

In the case of `COc1ccc(COCC[C@H](C)OC2OC(CO[Si](C)(C)C(C)(C)C)C(OC(=O)CCCN=[N+]=[N-])C(OC(=O)CCCN=[N+]=[N-])C2OC(=O)CCCN=[N+]=[N-])cc1` (some centres undefined), the TGI in assay [2], in assay [3], in [10], in [4], in assay [5] and in assay [7] was above 100 µM in each case. Further, the TGI in assay [8] and in [9] was above 100 µM each time.

As to `C=C1C(O)CC[C@]2(C)C1C1OC(C)(C)O[C@]13CC(=O)C(C)=C([C@H]1OC(C)(C)OC12)C3(C)C` (some centres undefined), the TGI in [1], in assay [2], in assay [3], in [4], in [5] and in [6] was above 100 µM each time. For the same compound, the TGI in assay [7], in [8] and in assay [9] was above 100 µM in each case.

For the compound `COc1ccc(N(C(=O)Nc2ccc(Cl)c(Cl)c2)C2c3cccn3C(=O)N2c2ccc(Cl)c(Cl)c2)cc1` (centres undefined), the TGI in assay [1], in assay [3], in assay [5], in assay [6], in [8] and in [9] was above 100 µM each time.

For `COc1ccc(C2c3cc4c(cc3OC(N3CCOCC3)C2C)OCO4)c(OC)c1OC` (centres undefined), the TGI was 64.9 µM in [1]; above 100 µM in assay [2]; above 100 µM in assay [3]; 29.7 µM in [10]; 45.6 µM in [4]; 39.8 µM in assay [6]. For the same compound, the TGI was above 100 µM in [8] and 69.7 µM in [9].

On to `C=C(C)C1C/C=C(/C)CCCC2(CCC3=C(CC(C(=C)C)C/C=C(/C)CCC3)O2)C(=O)C1` (centres undefined), for which the TGI in assay [1], in [2], in assay [3], in assay [10], in assay [5] and in assay [6] was above 100 µM each time. Besides, the TGI in [7], in assay [8] and in [9] was above 100 µM in each case.

In the case of `O=c1cc(N2CCCC2)[nH]c(=O)n1-c1ccccc1`, the TGI in [1], in assay [2], in assay [3], in assay [10], in assay [5] and in [6] was above 100 µM each time. In [8], this compound showed a TGI above 100 µM.

As to `CSc1n[nH]c(N)c1C(=O)Nc1ccccc1`, the TGI in [3], in [10], in assay [4], in assay [5], in assay [6] and in assay [7] was above 100 µM each time. The TGI in assay [8] and in [9] was above 100 µM each time.

Turning to `C=C1c2nc3ccccc3n2C=C(c2ccc(Cl)cc2)N1c1ccc(OC)cc1`, the TGI is 13.5 µM in [1]; 22.9 µM in assay [3]; 18.5 µM in assay [10]; 25.7 µM in [4]; 46.2 µM in assay [5]; above 100 µM in assay [6]. Further, the TGI in assay [7] is 23.7 µM; in [8], above 100 µM; in [9], above 100 µM.

On to `Cc1cnc2c(c1)C(=O)C1=C(C2=O)C2OC(=O)CC2OC1(C)C` (centres undefined), for which the TGI is 0.39 µM in assay [1]; 2.58 µM in [2]; 0.986 µM in assay [3]; 0.148 µM in [10]; 0.153 µM in [4]; 0.359 µM in assay [5]. The TGI in assay [7] was 2.77 µM; in assay [8], 0.768 µM; in assay [9] it was 0.351 µM.

Take `COCCOCCOC1=CC(=O)c2c(O)ccc(O)c2C1=O`: the TGI came out at 2.99 µM in [1]; 3.44 µM in assay [2]; 3.23 µM in assay [3]; 2.93 µM in [10]; 2.75 µM in assay [4]; 3.13 µM in [5]. In addition, the TGI in [6] came out at 4.26 µM; in [8] it was 1.72 µM; in assay [9], 3.34 µM.

As to `COc1cc2ccc1OCc1cccc(n1)COc1ccc(cc1OC)C=Nc1ccc(cc1)N=C2`, the TGI in assay [1], in assay [2], in assay [3], in assay [10], in [4] and in [5] was above 100 µM each time. For the same compound, the TGI in [7], in assay [8] and in [9] was above 100 µM throughout.

On to `CCCCn1c(-c2ccc([N+](=O)[O-])cc2)cs/c1=N/N=C1\C(=O)Nc2ccc(Br)cc21`, for which the TGI turned out to be 31.5 µM in assay [1]; 37.9 µM in assay [2]; 33.1 µM in assay [3]; 36.7 µM in assay [10]; 39.8 µM in assay [4]; 31.8 µM in [5]. Moreover, the TGI in [7] was 48.8 µM; in assay [8] it was above 100 µM; in assay [9], 76.1 µM.

Consider `O=c1[nH]nc(Cc2ccccc2)n1/N=C/c1ccncc1`, for which the TGI in assay [1], in [2], in assay [3], in [10], in assay [4] and in assay [5] was above 100 µM in each case. Also, the TGI in [6] and in [8] was above 100 µM throughout.

Take `O=C(c1ccncc1)C1C(=O)c2ccccc2C1C1(O)c2ccccc2CC1C(O)c1ccncc1` (centres undefined): the TGI was above 100 µM in [1]; above 100 µM in assay [2]; above 100 µM in [3]; above 100 µM in assay [10]; above 100 µM in assay [5]; 90.2 µM in [6]. Further, the figures for the TGI in assay [7], in assay [8] and in [9] were above 100 µM, above 100 µM and 48.7 µM, respectively.

On to `O=c1cc(/C=C/c2ccccc2)[nH]c2cc3c(cc12)OCO3`, for which the TGI in [1] was 28.3 µM; in assay [2], 14.5 µM; in assay [3], 13.3 µM; in assay [4] it was 5.82 µM; in assay [5] it was 30.2 µM; in assay [6], 3.18 µM. Besides, the TGI in [7] came out at 15.9 µM; in assay [8], 19.2 µM; in assay [9], 10.1 µM. Moreover, the GI50 in [4] was 2.22 µM.

With `CC(C(=O)O)C(C)(O)C(=O)O` (centres undefined), the TGI in [3], in [10], in [4], in assay [5], in [6] and in assay [7] was above 100 µM each time. The TGI in assay [8] and in [9] was above 100 µM in each case.
